According to patent publication US12599136B2, “Substituted isophthalic acid diamides and their use as herbicides” (Bayer Aktiengesellschaft, priority 2020, dated 2026):

Columns and labels:
Type in all cases: in vivo
Abutilon theophrasti [1] = test: Pre-emergence herbicidal action against ABUTH; conditions: visual score after 3 weeks vs untreated controls
Description: (§1) Seeds of monocotyledonous and dicotyledonous weed plants and crop plants are laid out in sandy loam soil in wood-fiber pots and covered with soil. The compounds of the invention, formulated in the form of wettable powders (WP) or as emulsion concentrates (EC), are then applied to the surface of the covering soil in the form of an aqueous suspension or emulsion at a water application rate equivalent to 600 to 800 l/ha, with addition of 0.2% wetting agent. After the treatment, the pots are placed in a greenhouse and kept under good growth conditions for the trial plants. The damage to the test plants is scored visually after a test period of 3 weeks by comparison with untreated controls (herbicidal activity in percent (%): 100% activity=the plants have died, 0% activity=like control plants). […] The tables below illustrate, in an illustrative manner, the post-emergence herbicidal action of the compounds of the invention, the herbicidal activity being stated in percent.

Amaranthus retroflexus [2] = test: Pre-emergence herbicidal action against AMARE; conditions: visual score after 3 weeks vs untreated controls
Description: as §1

Matricaria inodora [3] = test: Pre-emergence herbicidal action against MATIN; conditions: visual score after 3 weeks vs untreated controls
Description: as §1

Digitaria sanguinalis = test: Pre-emergence herbicidal action against DIGSA
Description: as §1

Setaria viridis [4] = test: Pre-emergence herbicidal action against SETVI; conditions: 80 g/ha
Description: as §1

Matricaria inodora [5] = test: Post-emergence herbicidal action against MATIN; conditions: visual assessment about 3 weeks after treatment
Procedure: (§2) Seeds of monocotyledonous and dicotyledonous weed and crop plants are laid out in sandy loam soil in wood-fiber pots, covered with soil and cultivated in a greenhouse under good growth conditions. 2 to 3 weeks after sowing, the test plants are treated at the one-leaf stage. The compounds of the invention, formulated in the form of wettable powders (WP) or as emulsion concentrates (EC), are then sprayed onto the green parts of the plants in the form of an aqueous suspension or emulsion at a water application rate equivalent to 600 to 800 l/ha, with addition of 0.2% wetting agent. After the test plants have been left to stand in the greenhouse under optimal growth conditions for about 3 weeks, the action of the preparations is assessed visually in comparison to untreated controls (herbicidal action in percent (%): 100% activity=the plants have died, 0% activity=like control plants). […] The tables below illustrate, in an illustrative manner, the post-emergence herbicidal action of the compounds of the invention, the herbicidal activity being stated in percent.

Pharbitis purpurea = test: Post-emergence herbicidal action against PHBPU; conditions: 20 g/ha, visual assessment about 3 weeks after treatment
Procedure: as §2

Echinochloa crus-galli [6] = test: Pre-emergence herbicidal action against ECHCG; conditions: 80 g/ha; visual score after 3 weeks vs untreated controls
Description: as §1

Veronica persica [7] = test: Pre-emergence herbicidal action against VERPE
Description: as §1

Viola tricolor [8] = test: Pre-emergence herbicidal action against VIOTR
Description: as §1

Amaranthus retroflexus [9] = test: Post-emergence herbicidal action against AMARE; conditions: visual assessment about 3 weeks after treatment
Procedure: as §2

Echinochloa crus-galli [10] = test: Post-emergence herbicidal action against ECHCG; conditions: visual assessment about 3 weeks after treatment
Procedure: as §2

Alopecurus myosuroides [11] = test: Pre-emergence herbicidal action against ALOMY; conditions: visual score after 3 weeks vs untreated controls
Description: as §1

Abutilon theophrasti [12] = test: Post-emergence herbicidal action against ABUTH
Procedure: as §2

Alopecurus myosuroides [13] = test: Post-emergence herbicidal action against ALOMY
Procedure: as §2

Avena fatua = test: Post-emergence herbicidal action against AVEFA; conditions: 20 g/ha, visual assessment about 3 weeks after treatment
Procedure: as §2

Viola tricolor [14] = test: Post-emergence herbicidal action against VIOTR
Procedure: as §2

Setaria viridis [15] = test: Post-emergence herbicidal action against SETVI; conditions: visual assessment about 3 weeks after treatment
Procedure: as §2

Veronica persica [16] = test: Post-emergence herbicidal action against VERPE; conditions: 20 g/ha, visual assessment about 3 weeks after treatment
Procedure: as §2

Row | SMILES | Pre-emergence action against ABUTH (Abutilon theophrasti [1]; 20 g/ha) [%] | Pre-emergence action against ABUTH (Abutilon theophrasti [1]; 80 g/ha) [%] | Pre-emergence action against AMARE (Amaranthus retroflexus [2]; 20 g/ha) [%] | Pre-emergence action against AMARE (Amaranthus retroflexus [2]; 80 g/ha) [%] | Pre-emergence action against MATIN (Matricaria inodora [3]; 80 g/ha) [%] | Pre-emergence action against DIGSA (Digitaria sanguinalis; 20 g/ha) [%] | Pre-emergence action against DIGSA (Digitaria sanguinalis; 80 g/ha) [%] | Pre-emergence action against SETVI (Setaria viridis [4]) [%] | Post-emergence action against MATIN in % (Matricaria inodora [5]; 20 g/ha) [%] | Post-emergence action against PHBPU in % (Pharbitis purpurea) [%] | Pre-emergence action against MATIN (Matricaria inodora [3]; 20 g/ha) [%] | Pre-emergence action against VERPE (Veronica persica [7]; 80 g/ha) [%] | Pre-emergence action against VIOTR (Viola tricolor [8]; 20 g/ha) [%] | Pre-emergence action against VIOTR (Viola tricolor [8]; 80 g/ha) [%] | Post-emergence action against AMARE in % (Amaranthus retroflexus [9]; 20 g/ha) [%] | Post-emergence action against ECHCG in % (Echinochloa crus-galli [10]; 20 g/ha) [%] | Pre-emergence action against ALOMY (Alopecurus myosuroides [11]; 80 g/ha) [%] | Post-emergence action against ALOMY (Alopecurus myosuroides [13]; 20 g/ha) [%] | Post-emergence action against AMARE in % (Amaranthus retroflexus [9]; 5 g/ha) [%] | Post-emergence action against AVEFA in % (Avena fatua) [%] | also measured
1 | CCOC(=O)[C@@H]1CCCN1C(=O)c1c(C(F)(F)F)ccc(C(=O)Nc2nnnn2C)c1C [Example 1-401] | 100 | 100 | 100 | 100 | 90 | 90 | 100 | 100 | 90 | 80 | – | – | – | – | – | – | – | – | – | – | –
2 | CCOC(=O)[C@@H]1CCCN1C(=O)c1c(C(F)(F)F)ccc(C(=O)Nc2nnnn2CC)c1C [Example 2-399] | 100 | 100 | 90 | 100 | 100 | 90 | 100 | 100 | 80 | 90 | 90 | 100 | 90 | 100 | 80 | 80 | – | – | – | – | Pre-emergence action against ECHCG (Echinochloa crus-galli [6]): 90%; Pre-emergence action against VERPE (Veronica persica [7]; 20 g/ha): 100%
3 | CCN(C(=O)c1c(C(F)(F)F)ccc(C(=O)Nc2nnnn2CC)c1Cl)C1CC1 [Example 2-136] | 100 | 100 | 100 | 100 | 100 | 90 | 100 | 100 | 80 | – | 80 | – | 100 | 100 | 100 | 90 | 100 | 90 | 100 | 80 | Pre-emergence action against ALOMY (Alopecurus myosuroides [11]; 20 g/ha): 90%; Pre-emergence action against ECHCG (Echinochloa crus-galli [6]): 90%; Post-emergence action against ABUTH (Abutilon theophrasti [12]; 5 g/ha): 80%; Post-emergence action against ABUTH (Abutilon theophrasti [12]; 20 g/ha): 90%; Post-emergence action against VIOTR in % (Viola tricolor [14]; 5 g/ha): 100%; Post-emergence action against VIOTR in % (Viola tricolor [14]; 20 g/ha): 100%
4 | CCN(CC)C(=O)c1c(C(F)F)ccc(C(=O)Nc2nnnn2C)c1C [Example 1-59] | – | 100 | 100 | 100 | 90 | – | – | 100 | 90 | – | – | 90 | – | – | 100 | 80 | 90 | 90 | 100 | 90 | Post-emergence action against ABUTH (Abutilon theophrasti [12]; 5 g/ha): 90%; Post-emergence action against ABUTH (Abutilon theophrasti [12]; 20 g/ha): 90%; Post-emergence action against ALOMY (Alopecurus myosuroides [13]; 5 g/ha): 90%; Post-emergence action against SETVI in % (Setaria viridis [15]; 5 g/ha): 90%; Post-emergence action against SETVI in % (Setaria viridis [15]; 20 g/ha): 90%; Post-emergence action against VERPE in % (Veronica persica [16]): 90%; Post-emergence action against VIOTR in % (Viola tricolor [14]; 20 g/ha): 80%
5 | CCOC(=O)[C@@H]1CCCN1C(=O)c1c(C(F)(F)F)ccc(C(=O)Nc2nnnn2C)c1Cl [Example 1-400] | – | 100 | 90 | 100 | 90 | 100 | 100 | – | – | – | – | – | – | – | – | – | – | – | – | – | –
6 | Cn1nnnc1NC(=O)c1ccc(C(F)(F)F)c(C(=O)N(C2CC2)C2CC2)c1Cl [Example 1-144] | 80 | 100 | 90 | 100 | 100 | – | 100 | – | – | – | 90 | – | 80 | 100 | 90 | – | – | – | 90 | – | –
7 | CCOC(=O)[C@@H]1CCCN1C(=O)c1c(C(F)(F)F)ccc(C(=O)Nc2nnnn2CC)c1Cl [Example 2-398] | 80 | 100 | – | 100 | 100 | – | 90 | 80 | – | – | – | – | – | 100 | – | – | – | – | – | – | –
8 | CCN(CC)C(=O)c1c(C(F)(F)F)ccc(C(=O)Nc2nnnn2CC)c1C [Example 2-31] | 100 | 100 | 100 | 100 | 100 | 90 | 100 | 90 | 90 | 90 | 90 | 80 | 100 | 100 | – | 90 | 80 | 80 | – | 80 | Post-emergence action against ECHCG in % (Echinochloa crus-galli [10]; 5 g/ha): 80%; Post-emergence action against MATIN in % (Matricaria inodora [5]; 5 g/ha): 80%; Post-emergence action against SETVI in % (Setaria viridis [15]; 5 g/ha): 80%; Post-emergence action against SETVI in % (Setaria viridis [15]; 20 g/ha): 90%; Post-emergence action against VIOTR in % (Viola tricolor [14]; 5 g/ha): 100%; Post-emergence action against VIOTR in % (Viola tricolor [14]; 20 g/ha): 100%
